Among the data in PubChem BioAssay (NCI) are GI50 and TGI values, retold here.

Molecules are shown by their SMILES. “And” between values parts separate entries of the source, which are not always exact repeats. Equal entries are not always repeated.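 Tested at 5 concentrations; 48 h exposure; 96-well plates; endpoints linearly interpolated, else capped at highest concentration. GI50 = concentration required for 50% inhibition of growth. The concentration for full growth arrest is given as TGI.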

One assay has as its system P388 leukemia. In words: NCI tumour cell line growth inhibition, 48 h.
Another assay deals with P388/ADR leukemia. As to the kind of experiment: NCI tumour cell line growth inhibition, 48 h.

Take `C[C@@](O)(/C=C/[C@H]1CC=CC(=O)O1)[C@@H](C[C@@H](O)\C=C/C=C\C=C\CO)OP(=O)(O)O`: the GI50 in the assay with P388 leukemia is 1.41 µM and 0.567 µM; with P388/ADR leukemia, 0.963 µM and 0.989 µM.

`O=C1N[C@H]2[C@H](O)[C@H](O)[C@@H](O)[C@H](O)[C@@H]2c2cc3c(c(O)c21)OCO3`: the values for the TGI in the assay with P388 leukemia and with P388/ADR leukemia were 0.164 µM and 0.21 µM, respectively.
